Measurements published in patent US9695155B2, “Herbicidal substituted pyrimidinyloxy benzene compounds” (E. I. DU PONT DE NEMOURS AND COMPANY, priority 2013, dated 2017).

How the values were obtained:
Test in all cases: Test F preemergence
Conditions in all cases: 21 days, scale 0 to 100
[1] = tested on: morningglory (pitted morningglory); format: in vivo, Ipomoea lacunosa
Source text: (§1) Seeds of plant species selected from bermudagrass (Cynodon dactylon), surinam grass (Brachiaria decumbens), large (Lg) crabgrass (Digitaria sanguinalis), crabgrass, naked (naked crabgrass, Digitaria nuda), foxtail, green (green foxtail, Setaria viridis), johnsongrass (Sorghum halepense), kochia (Kochia scoparia), morningglory (pitted morningglory, Ipomoea lacunosa), nutsedge, purple (purple nutsedge, Cyperus rotundus), ragweed (common ragweed, Ambrosia elatior), mustard, black (black mustard, Brassica nigra), guineagrass (Panicum maximum), dallisgrass (Paspalum dilatatum), barnyardgrass (Echinochloa crus-galli), sandbur (southern sandbur, Cenchrus echinatus), sowthistle (common sowthistle, Sonchus oleraceous), Italian ryegrass (Lolium multiflorum), signalgrass (broadleaf signalgrass, Brachiaria platyphylla), dayflower (Virginia (VA) dayflower, Commelina virginica), bluegrass (annual bluegrass, Poa annua), quackgrass (Elytrigia repens), mallow (common mallow, Malva sylvestris), buckwheat, wild (wild buckwheat, Polygonum convolvulus), leafy spurge (Euphorbia esula), chickweed (common chickweed, Stellaria media), wild poinsettia (Euphorbia heterophylla), and pigweed (Amaranthus retroflexus) were planted into a blend of loam soil and sand and treated preemergence with test chemicals formulated in a non-phytotoxic solvent mixture which included a surfactant.
(§2) Treated plants and controls were maintained in a greenhouse for 21 days, after which time all species were compared to controls and visually evaluated. Plant response ratings, summarized in Table F, are based on a scale of 0 to 100 where 0 is no effect and 100 is complete control. A dash (-) response means no test result.

[2] = tested on: large (Lg) crabgrass; format: in vivo, Digitaria sanguinalis
Source text: as §1, §2

[3] = tested on: crabgrass, naked; format: in vivo, Digitaria nuda
Source text: as §1, §2

[4] = tested on: bluegrass; format: in vivo, Poa annua
Source text: as §1, §2

[5] = tested on: leafy spurge; format: in vivo, Euphorbia esula
Source text: as §1, §2

| SMILES | Plant response rating, Morningglory ([1]; 16 g ai/ha) | Plant response rating, Morningglory ([1]; 31 g ai/ha) | Plant response rating, Morningglory ([1]; 62 g ai/ha) | Plant response rating, Morningglory ([1]; 125 g ai/ha) | Plant response rating, Morningglory ([1]; 250 g ai/ha) | Plant response rating, Crabgrass, Large ([2]; 16 g ai/ha) | Plant response rating, Crabgrass, Large ([2]; 31 g ai/ha) | Plant response rating, Crabgrass, Large ([2]; 62 g ai/ha) | Plant response rating, Crabgrass, Large ([2]; 125 g ai/ha) | Plant response rating, Crabgrass, Large ([2]; 250 g ai/ha) | Plant response rating, Crabgrass, Naked ([3]; 16 g ai/ha) | Plant response rating, Crabgrass, Naked ([3]; 31 g ai/ha) | Plant response rating, Crabgrass, Naked ([3]; 62 g ai/ha) | Plant response rating, Crabgrass, Naked ([3]; 125 g ai/ha) | Plant response rating, Crabgrass, Naked ([3]; 250 g ai/ha) | Plant response rating, Bluegrass ([4]; 16 g ai/ha) | Plant response rating, Bluegrass ([4]; 31 g ai/ha) | Plant response rating, Bluegrass ([4]; 62 g ai/ha) | Plant response rating, Bluegrass ([4]; 125 g ai/ha) | Plant response rating, Bluegrass ([4]; 250 g ai/ha) | also measured |
| --- | --- | --- | --- | --- | --- | --- | --- | --- | --- | --- | --- | --- | --- | --- | --- | --- | --- | --- | --- | --- | --- |
| N#Cc1cccc(Oc2ncc(F)cn2)c1-n1cc(C(F)(F)F)cn1 [Compound 79, 3-[(5-fluoro-2-pyrimidinyl)oxy]-2-[4-(trifluoromethyl)-1H-pyrazol-1-yl]benzonitrile] | 98 | 100 | 100 | 100 | 100 | 98 | 100 | 100 | 100 | 100 | 100 | 100 | 100 | 100 | 100 | 50 | 75 | 98 | 100 | 100 | Plant response rating, Leafy Spurge ([5]; 16 g ai/ha): 95; Plant response rating, Leafy Spurge ([5]; 31 g ai/ha): 98; Plant response rating, Leafy Spurge ([5]; 62 g ai/ha): 100; Plant response rating, Leafy Spurge ([5]; 125 g ai/ha): 100; Plant response rating, Leafy Spurge ([5]; 250 g ai/ha): 100 |
| N#Cc1cccc(Oc2ncc(Cl)cn2)c1-n1cc(OC(F)F)cn1 [Compound 97] | 10 | 60 | 90 | 98 | 100 | 98 | 100 | 100 | 100 | 100 | 100 | 100 | 100 | 100 | 100 | 5 | 35 | 75 | 98 | 100 | Plant response rating, Leafy Spurge ([5]; 16 g ai/ha): 98; Plant response rating, Leafy Spurge ([5]; 31 g ai/ha): 98; Plant response rating, Leafy Spurge ([5]; 62 g ai/ha): 100; Plant response rating, Leafy Spurge ([5]; 125 g ai/ha): 100; Plant response rating, Leafy Spurge ([5]; 250 g ai/ha): 100 |
